# Source: patent US11149033B2, “Heteroaryl compound, enantiomer, diastereomer or pharmaceutically acceptable salt thereof, and antiviral composition containing same as active ingredient” (priority 2016, dated 2021)
# Legend:
# [1] = in vitro
# [2] = test system: A/Perth/16/2009 (H3N2); experiment: Antiviral activity (drug efficacy evaluation by concentration) against A/Perth/16/2009 (H3N2); format: cell-based, A type influenza virus; conditions: Influenza A virus, H3N2; read-out: EC50
# [3] = CC50 B/Florida/04/2006, cytotoxicity in the B/Florida/04/2006 assay
# [4] = CC50, third EC50/CC50 column pair (c7), beside the EC50 of c6
structure (smiles),measurement,setting,value
c1ccc(-c2cccc(CSc3nnc(Cn4cc(-c5ccccc5)cn4)o3)c2)cc1,melting point,,74.1 °C
"[O-][S+](Cc1ccccc1-c1ccccc1)c1nnc(Cc2ccc(Br)cc2)o1 (stereo not shown) [Compound 59, 2-(([1,1′-biphenyl]-2-ylmethyl)sulfinyl)-5-(4-bromobenzyl)-1,3,4-oxadiazole]",CC50,[1]; [3],> 50 µM
"CN(c1ccc(Br)cc1)c1nnc(SCc2ccccc2-c2ccccc2)o1 [Compound 65, 5-(([1,1′-biphenyl]-2-ylmethyl)thio)-N-(4-bromophenyl)-N-methyl-1,3,4-oxadiazol-2-amine]",CC50,[1]; [3],> 50 µM
"CSc1nnc(Cc2ccccc2)o1 [Compound 80, 2-benzyl-5-(methylthio)-1,3,4-oxadiazole]",CC50,[1]; [3],> 50 µM
"Brc1ccc(Cc2nnc(-c3ccc4ccccc4c3)o2)cc1 [Compound 98, 2-(4-bromobenzyl)-5-(naphthalen-2-yl)-1,3,4-oxadiazole]",CC50,"[1]; CC50, beside the EC50 of c2",> 50 µM
same,CC50,"[1]; CC50, beside the EC50 of c4",> 50 µM
same,CC50,[1]; [4],> 50 µM
"Cc1ccccc1CSc1ncc(CNc2ccc(Br)cc2)o1 [Compound 99, 4-bromo-N-((2-((2-methylbenzyl)thio)oxazol-5-yl)methyl)aniline]",CC50,"[1]; CC50, beside the EC50 of c2",> 50 µM
same,CC50,"[1]; CC50, beside the EC50 of c4",> 50 µM
same,CC50,[1]; [4],> 50 µM
"CC(C)c1ccc(Cc2nnc(SCc3ccccc3-c3ccccc3)o2)cc1 [Compound 107, 2-(([1,1′-biphenyl]-2-ylmethyl)thio)-5-(4-isopropylbenzyl)-1,3,4-oxadiazole]",EC50,[2],20.6 µM
same,CC50,"[1]; CC50, beside the EC50 of c2",> 50 µM
same,CC50,"[1]; CC50, beside the EC50 of c4",> 50 µM
same,CC50,[1]; [4],> 50 µM
"Cc1ccccc1CCc1nnc(Cc2ccc(F)c(Cl)c2)o1 [Compound 108, 2-(3-chloro-4-fluorobenzyl)-5-(2-methylphenethyl)-1,3,4-oxadiazole]",EC50,[2],> 50 µM
same,CC50,"[1]; CC50, beside the EC50 of c2",> 50 µM
same,CC50,"[1]; CC50, beside the EC50 of c4",> 50 µM
same,CC50,[1]; [4],> 50 µM
"CC(C)c1ccccc1/C=C/c1nnc(Cc2ccc(-c3ccccc3)cc2)o1 [Compound 142, 2-([1,1′-biphenyl]-4-ylmethyl)-5-(2-isopropylstyryl)-1,3,4-oxadiazole]",CC50,"[1]; CC50, beside the EC50 of c2",> 50 µM
same,CC50,"[1]; CC50, beside the EC50 of c4",> 50 µM
same,CC50,[1]; [4],> 50 µM
"Fc1ccc(Oc2ccccc2/C=C/c2nnc(Cc3ccc(Br)cc3)o2)cc1 [Compound 155, 2-(4-bromobenzyl)-5-(2-(4-fluorophenoxy)styryl)-1,3,4-oxadiazole]",CC50,"[1]; CC50, beside the EC50 of c2",> 50 µM
same,CC50,"[1]; CC50, beside the EC50 of c4",> 50 µM
same,CC50,[1]; [4],> 50 µM
"Cc1cc(F)ccc1/C=C/c1nnc(Cc2cccc(Br)c2)o1 [Compound 186, 2-(3-bromobenzyl)-5-(4-fluoro-2-methylstyryl)-1,3,4-oxadiazole]",CC50,"[1]; CC50, beside the EC50 of c2",> 50 µM
same,CC50,"[1]; CC50, beside the EC50 of c4",> 50 µM
same,CC50,[1]; [4],> 50 µM
"CC(C)c1ccccc1/C=C/c1nnc(Cc2ccccc2)o1 [Compound 196, 2-benzyl-5-(2-isopropylstyryl)-1,3,4-oxadiazole]",CC50,"[1]; CC50, beside the EC50 of c2",> 50 µM
same,CC50,"[1]; CC50, beside the EC50 of c4",> 50 µM
same,CC50,[1]; [4],> 50 µM
"Cc1nc2ccccc2n1Cc1nnc(/C=C/c2ccc(F)cc2Cl)o1 [Compound 203, (E)-2-(2-chloro-4-fluorostyryl)-5-((2-methyl-1H-benzo[d]imidazol-1-yl)methyl)-1,3,4-oxadiazole]",EC50,[2],15.4 µM
same,CC50,"[1]; CC50, beside the EC50 of c2",> 50 µM
same,CC50,"[1]; CC50, beside the EC50 of c4",> 50 µM
same,CC50,[1]; [4],> 50 µM
"Cc1cccc(Cc2nnc(/C=C/c3ccc(F)cc3Cl)o2)c1 [Compound 211, 2-(2-chloro-4-fluorostyryl)-5-(3-methylbenzyl)-1,3,4-oxadiazole]",melting point,,100.5 °C
"Cn1cc(Cc2nnc(/C=C/c3ccc(F)cc3Cl)o2)c2ccccc21 [Compound 213, 2-(2-chloro-4-fluorostyryl)-5-((1-methyl-1H-indol-3-yl)methyl)-1,3,4-oxadiazole]",melting point,,148.1 °C
"Fc1ccc(/C=C/c2nnc(Cc3cccc(Br)c3)o2)c(Br)c1 [Compound 215, 2-(2-bromo-4-fluorostyryl)-5-(3-bromobenzyl)-1,3,4-oxadiazole]",melting point,,129.5 °C
"CN(C)c1cccc(Cc2nnc(/C=C/c3ccc(F)cc3Cl)o2)c1 [Compound 217, 3-((5-(2-chloro-4-fluorostyryl)-1,3,4-oxadiazol-2-yl)methyl)-N,N-dimethylaniline]",melting point,,134.2 °C
"Oc1ccccc1/C=C/c1nnc(Cc2cccc(Br)c2)o1 [Compound 218, 2-(2-(5-(3-bromobenzyl)-1,3,4-oxadiazol-2-yl)vinyl)phenol]",melting point,,179.9 °C
"Fc1ccc(/C=C/c2nnc(Cc3cccc(Cl)n3)o2)c(Cl)c1 [Compound 219, 2-(2-chloro-4-fluorostyryl)-5-((6-chloropyridin-2-yl)methyl)-1,3,4-oxadiazole]",melting point,,145.2 °C
"Cc1cccc(Cc2nnc(/C=C/c3ccc(F)cc3Cl)o2)c1C [Compound 221, 2-(2-chloro-4-fluorostyryl)-5-(2,3-dimethylbenzyl)-1,3,4-oxadiazole]",melting point,,139.3 °C
"Fc1ccc(/C=C/c2nnc(Cc3ccccc3Br)o2)c(Cl)c1 [Compound 222, 2-(2-bromobenzyl)-5-(2-chloro-4-fluorostyryl)-1,3,4-oxadiazole]",melting point,,155.2 °C
"Fc1ccc(/C=C/c2nnc(CCc3cccc(Br)c3)o2)c(Cl)c1 [Compound 223, 2-(3-bromophenethyl)-5-(2-chloro-4-fluorostyryl)-1,3,4-oxadiazole]",melting point,,108.7 °C
"Clc1ncccc1/C=C/c1nnc(Cc2cccc(Br)c2)o1 [Compound 225, 2-(3-bromobenzyl)-5-(2-(2-chloropyridin-3-yl)vinyl)-1,3,4-oxadiazole]",melting point,,162.5 °C
"Fc1cccc(Cc2nnc(/C=C/c3ccc(F)cc3Cl)o2)c1 [Compound 226, 2-(2-chloro-4-fluorostyryl)-5-(3-fluorobenzyl)-1,3,4-oxadiazole]",melting point,,132.5 °C
"Fc1ccc(/C=C/c2nnc(Cc3cccc4cccnc34)o2)c(Cl)c1 [Compound 236, 2-(2-chloro-4-fluorostyryl)-5-(quinolin-8-ylmethyl)-1,3,4-oxadiazole]",melting point,,171.9 °C
"Fc1ccc(/C=C/c2nnc(Cc3nccc4ccccc34)o2)c(Cl)c1 [Compound 237, 2-(2-chloro-4-fluorostyryl)-5-(isoquinolin-1-ylmethyl)-1,3,4-oxadiazole]",melting point,,171.4 °C
"Fc1ccc(/C=C/c2nnc(Cc3cncc4ccccc34)o2)c(Cl)c1 [Compound 238, 2-(2-chloro-4-fluorostyryl)-5-(isoquinolin-4-ylmethyl)-1,3,4-oxadiazole]",melting point,,171.3 °C
"COC(=O)c1ccccc1/C=C/c1nnc(Cc2cccc(Br)c2)o1 [Compound 242, methyl-2-(2-(5-(3-bromobenzyl)-1,3,4-oxadiazol-2-yl)vinyl)benzoate]",melting point,,131.1 °C
"O=C(O)c1ccccc1/C=C/c1nnc(Cc2cccc(Br)c2)o1 [Compound 243, 2-(2-(5-(3-bromobenzyl)-1,3,4-oxadiazol-2-yl)vinyl)benzoic acid]",melting point,,167.7 °C
"O=C(Nc1ccc(F)cc1Cl)c1nnc(Cc2cccc(Br)c2)o1 [Compound 244, 5-(3-bromobenzyl)-N-(2-chloro-4-fluorophenyl)-1,3,4-oxadiazole-2-carboxamide]",melting point,,165.8 °C
"Fc1cc(F)c(/C=C/c2nnc(Cc3cccc(Br)c3)o2)c(Cl)c1 [Compound 245, 2-(3-bromobenzyl)-5-(2-chloro-4,6-difluorostyryl)-1,3,4-oxadiazole]",melting point,,112 °C
"O=C(Nc1cccc(Br)c1)c1nnc(/C=C/c2ccc(F)cc2Cl)o1 [Compound 253, N-(3-bromophenyl)-5-(2-chloro-4-fluorostyryl)-1,3,4-oxadiazole-2-carboxamide]",melting point,,254.2 °C
"Cc1cc(F)cc(Cc2nnc(/C=C/c3ccc(F)cc3Cl)o2)c1 [Compound 255, 2-(2-chloro-4-fluorostyryl)-5-(3-fluoro-5-methylbenzyl)-1,3,4-oxadiazole]",melting point,,117 °C
"FC(F)(F)Oc1ccccc1/C=C/c1nnc(Cc2cccc(Br)c2)o1 [Compound 256, 2-(3-bromobenzyl)-5-(2-(trifluoromethoxy)styryl)-1,3,4-oxadiazole]",melting point,,103.6 °C
"Fc1ccc(/C=C/c2nnc(Cc3cc(Br)ccc3F)o2)c(Cl)c1 [Compound 258, 2-(5-bromo-2-fluorobenzyl)-5-(2-chloro-4-fluorostyryl)-1,3,4-oxadiazole]",melting point,,156.6 °C
"Cc1ccc(Cc2nnc(/C=C/c3ccc(F)cc3F)o2)cc1Br [Compound 262, 2-(3-bromo-4-methylbenzyl)-5-(2,4-difluorostyryl)-1,3,4-oxadiazole]",melting point,,132 °C
"Fc1ccc(/C=C/c2nnc(Cc3ccc(F)c(Br)c3)o2)c(F)c1 [Compound 263, 2-(3-bromo-4-fluorobenzyl)-5-(2,4-difluorostyryl)-1,3,4-oxadiazole]",melting point,,115 °C
"Fc1ccc(/C=C/c2nnc(Cc3cccc(Br)c3)o2)c(C(F)(F)F)c1 [Compound 264, 2-(3-bromobenzyl)-5-(4-fluoro-2-(trifluoromethyl)styryl)-1,3,4-oxadiazole]",melting point,,137.3 °C
"Cc1ccc(Cc2nnc(/C=C/c3ccc(F)cc3Br)o2)cc1Br [Compound 265, 2-(2-bromo-4-fluorostyryl)-5-(3-bromo-4-methylbenzyl)-1,3,4-oxadiazole]",melting point,,152.6 °C
"Fc1ccc(/C=C/c2nnc(Cc3ccc(F)c(Br)c3)o2)c(Br)c1 [Compound 266, 2-(3-bromo-4-fluorobenzyl)-5-(2-bromo-4-fluorostyryl)-1,3,4-oxadiazole]",melting point,,124.9 °C
"Fc1ccc(/C=C/c2nnc(Cc3cccc(C4CC4)c3)o2)c(Cl)c1 [Compound 267, 2-(2-chloro-4-fluorostyryl)-5-(3-cyclopropylbenzyl)-1,3,4-oxadiazole]",melting point,,110.2 °C
"Fc1cccc(/C=C/c2nnc(Cc3cccc(Br)c3)o2)c1F [Compound 280, 2-(3-bromobenzyl)-5-(2,3-difluorostyryl)-1,3,4-oxadiazole]",melting point,,97.4 °C
"FC(F)(F)c1ccccc1/C=C/c1nnc(Cc2cccc(Br)c2)o1 [Compound 281, 2-(3-bromobenzyl)-5-(2-(trifluoromethyl)styryl)-1,3,4-oxadiazole]",melting point,,107.2 °C
